# Active and inactive are the calls of the source. The rule behind the calls is not given here.
# Experiments:
# [1] = Cmax in RjOrl:Swiss (CD-1) mouse plasma at 30 mg/kg, po; assay type: ADME, organism-based; set-up: dose 30 mg/kg, route oral
# [2] = AUC (0 to infinity) in RjOrl:Swiss (CD-1) mouse plasma at 30 mg/kg, po; assay type: ADME, organism-based; set-up: dose 30 mg/kg, time infinity, route oral
# [3] = Apparent oral clearance in RjOrl:Swiss (CD-1) mouse plasma at 30 mg/kg; assay type: ADME, organism-based
# [4] = Apparent volume of distribution during terminal phase in RjOrl:Swiss (CD-1) mouse plasma at 30 mg/kg, po; assay type: ADME, organism-based; conditions: read-out: Vz/F
# [5] = target: Free fatty acid receptor 1 (Homo sapiens) (UniProt O14842); experiment: Partial agonist activity at human free fatty acid receptor 1 expressed in HEK293 cells assessed as inositol phosphate 1 accumulation incubated for 30 mins; assay type: functional, cell-based
# [6] = target: Free fatty acid receptor 1 (Mus musculus) (UniProt Q76JU9); experiment: Partial agonist activity at mouse free fatty acid receptor 1 expressed in HEK293 cells assessed as inositol phosphate 1 accumulation incubated for 30 mins; assay type: functional, cell-based
# HepG2 = experiment: Cytotoxicity against human HepG2 cells assessed as cell viability up to 30 uM after 48 hrs by WST-1 assay; assay type: cell-based; conditions: hepg2, 48 h
# Mus musculus [7] = experiment: Upregulation of PPARalpha gene expression in C57BL/6JRj mouse liver at 30 mg/kg/day, po administered with drinking water after 2 weeks by qPCR method; assay type: functional, organism-based
# Mus musculus [8] = experiment: Upregulation of PPARgamma gene expression in C57BL/6JRj mouse liver at 30 mg/kg/day, po administered with drinking water measured after 2 weeks by qPCR method; assay type: functional, organism-based
# Mus musculus [9] = experiment: In vivo transactivation of PPARgamma in C57BL/6JRj mouse assessed as increase in CD36 expression in liver at 30 mg/kg/day, po administered with drinking water measured after 2 weeks by qPCR method; assay type: functional, organism-based
# Mus musculus [10] = experiment: In vivo transactivation of PPARgamma in C57BL/6JRj mouse assessed as increase in PGC-1alpha expression in liver at 30 mg/kg/day, po administered with drinking water measured after 2 weeks by qPCR method; assay type: functional, organism-based
# Mus musculus [11] = experiment: In vivo transactivation of PPARgamma in C57BL/6JRj mouse assessed as increase in LXRalpha expression in liver at 30 mg/kg/day, po administered with drinking water measured after 2 weeks by qPCR method; assay type: functional, organism-based
# Mus musculus [12] = experiment: Upregulation of LXRalpha regulated ApoE expression in C57BL/6JRj mouse liver at 30 mg/kg/day, po administered with drinking water measured after 2 weeks by qPCR method; assay type: functional, organism-based
# Mus musculus [13] = experiment: Upregulation of LXRalpha regulated ABCA1 expression in C57BL/6JRj mouse liver at 30 mg/kg/day, po administered with drinking water measured after 2 weeks by qPCR method; assay type: functional, organism-based
# Mus musculus [14] = experiment: In vivo transactivation of PPARgamma in C57BL/6JRj mouse assessed as increase in sEH expression in liver at 30 mg/kg/day, po administered with drinking water after 2 weeks by qPCR method; assay type: functional, organism-based
# [15] = Drug level in supernatant of African green monkey COS7 cells treated with Ethyl 2-Ethyl 3-[4-(N-(4-methoxy(2-trifluoromethyl)benzyl)-benzamide)]propanoate at 10 uM after 12 hrs by HPLC analysis; assay type: ADME, cell-based; conditions: chlorocebus aethiops, cos-7, 12 h
# [16] = target: T1, Peroxisome proliferator-activated receptor alpha (Homo sapiens) (UniProt Q07869); experiment: Transactivation of human PPARalpha expressed in African green monkey COS7 cells at 10 uM incubated overnight by dual-glo luciferase reporter assay; assay type: cell-based; conditions: COS-7
# T1 sequence (whole entry): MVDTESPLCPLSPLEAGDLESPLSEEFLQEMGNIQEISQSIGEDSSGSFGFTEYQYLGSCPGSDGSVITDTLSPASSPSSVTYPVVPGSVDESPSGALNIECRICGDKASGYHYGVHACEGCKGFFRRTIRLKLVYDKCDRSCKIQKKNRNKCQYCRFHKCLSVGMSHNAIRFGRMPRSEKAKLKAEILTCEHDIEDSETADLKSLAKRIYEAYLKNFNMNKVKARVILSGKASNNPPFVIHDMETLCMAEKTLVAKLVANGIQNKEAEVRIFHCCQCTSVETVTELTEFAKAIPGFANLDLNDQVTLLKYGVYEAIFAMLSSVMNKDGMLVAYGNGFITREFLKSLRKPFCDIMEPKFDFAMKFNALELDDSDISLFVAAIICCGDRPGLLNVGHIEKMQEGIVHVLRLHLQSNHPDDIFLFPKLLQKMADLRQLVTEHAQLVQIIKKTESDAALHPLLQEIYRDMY
# [17] = Solubility of the compound in water by microplate reader analysis; assay type: physicochemical
# [18] = target: T2, Peroxisome proliferator-activated receptor delta (Homo sapiens, UniProt Q03181); experiment: Transactivation of human PPARdelta expressed in African green monkey COS7 cells incubated overnight by dual-glo luciferase reporter gene assay; assay type: cell-based; conditions: cos-7
# T2 sequence (Q03181 whole entry): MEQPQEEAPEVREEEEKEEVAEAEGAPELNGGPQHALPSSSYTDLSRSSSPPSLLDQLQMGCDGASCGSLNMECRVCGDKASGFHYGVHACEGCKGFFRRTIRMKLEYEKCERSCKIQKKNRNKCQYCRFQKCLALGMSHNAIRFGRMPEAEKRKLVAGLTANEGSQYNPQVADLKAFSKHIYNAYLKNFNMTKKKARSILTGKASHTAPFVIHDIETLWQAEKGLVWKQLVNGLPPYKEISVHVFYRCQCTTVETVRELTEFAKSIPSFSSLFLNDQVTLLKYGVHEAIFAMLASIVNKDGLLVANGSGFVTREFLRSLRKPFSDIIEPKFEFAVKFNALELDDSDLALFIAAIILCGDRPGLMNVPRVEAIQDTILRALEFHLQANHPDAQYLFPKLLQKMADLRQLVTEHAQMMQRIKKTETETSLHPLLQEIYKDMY
# Sequence of Free fatty acid receptor 1 (Mus musculus) (Q76JU9 whole entry): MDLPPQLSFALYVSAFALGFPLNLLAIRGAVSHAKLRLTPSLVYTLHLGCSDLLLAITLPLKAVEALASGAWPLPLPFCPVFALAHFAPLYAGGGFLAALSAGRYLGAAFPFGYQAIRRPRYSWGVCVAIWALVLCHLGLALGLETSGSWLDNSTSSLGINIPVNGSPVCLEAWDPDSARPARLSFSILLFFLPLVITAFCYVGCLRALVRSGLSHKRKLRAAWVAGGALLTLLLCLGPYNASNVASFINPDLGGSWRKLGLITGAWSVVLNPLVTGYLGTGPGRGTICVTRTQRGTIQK
# Sequence of Free fatty acid receptor 1 (Homo sapiens) (O14842 whole entry): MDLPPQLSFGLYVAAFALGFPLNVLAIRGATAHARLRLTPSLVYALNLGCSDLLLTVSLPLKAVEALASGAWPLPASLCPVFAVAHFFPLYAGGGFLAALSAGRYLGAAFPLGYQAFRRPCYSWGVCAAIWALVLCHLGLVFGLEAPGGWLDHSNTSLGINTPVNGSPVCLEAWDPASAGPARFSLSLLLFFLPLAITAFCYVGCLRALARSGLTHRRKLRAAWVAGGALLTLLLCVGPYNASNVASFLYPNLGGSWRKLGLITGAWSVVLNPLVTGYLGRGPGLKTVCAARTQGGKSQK
structure (smiles),measurement,setting,value
CCC(Cc1ccc(C(=O)NCc2ccc(OC)cc2C(F)(F)F)cc1)C(=O)O (centres undefined),Cmax,[1],29100 ng/mL
same,AUC(0-inf),[2],94400 ng·h/mL
same,CL/F,[3],5 mL/min/kg
same,Vd/F,[4],2 L/kg
same,Activity,[5],Active
same,Activity,[6],Active
same,Activity,HepG2,Non-toxic
same,Activity,Mus musculus [7],Active
same,Activity,Mus musculus [8],Active
same,Activity,Mus musculus [9],Active
same,Activity,Mus musculus [10],Active
same,Activity,Mus musculus [11],Active
same,Activity,Mus musculus [12],inactive
same,Activity,Mus musculus [13],inactive
same,Activity,Mus musculus [14],Active
same,Drug metabolism,[15],metabolite_detected
same,Activity,[16],29%
same,solubility,[17],375 µM
same,EC50,[18],Not Active

# — ChEMBL document CHEMBL3763124, “N-Benzylbenzamides: A Novel Merged Scaffold for Orally Available Dual Soluble Epoxide Hydrolase/Peroxisome Proliferator-Activated Receptor γ Modulators” (J Med Chem, 2016)
